{"source": "patent US20050203063A1", "about": "“Proteasome pathway inhibitors and related methods” (priority 2003, published 2005)", "key": {"26S proteasomes": {"tested_on": "T1, 26S proteasomes", "T1 construct": "IC50, deubiquitination of UbSic1; other: titration, epoxomicin-treated proteasomes; other: 5 μM C92", "experiment": "Binding of UbSic1 to immobilized 26S proteasomes", "set-up": "species or system S. cerevisiae", "details": "5 μM C92", "protocol": "FIG. 2. […] (A) Degradation of UbSic1. Purified 26S proteasomes were preincubated in the presence or absence of test compounds. UbSic1 was then added, and degradation assayed as described (6). Py mock refers to the pyridine solvent in which C23 was dissolved which was marginally inhibitory, unlike the 50% DMSO vehicle used for other test compounds. (B) Deubiquitination of UbSic1. […] UbSic1 was then added, and deubiquitination was assayed as described (6). (C) Titration curve with varying concentrations of C92 to determine half-maximal inhibition of deubiquitination. (D) C92 inhibits binding of UbSic1 to 26S proteasomes. Purified 26S proteasomes immobilized on anti-Flag beads were incubated with UbSic1 in the presence or absence of C92 as described (6). Following binding, beads were washed and analyzed by immunoblotting with anti-Sic1 polyclonal serum. (E) Binding of UbSic1 to the polyUb binding proteins Rpn10 and Rad23 is inhibited by C92. […] Following binding, beads were washed and analyzed by immunoblotting. […]\n26S proteasomes were immunoprecipitated with anti-Flag resin from tagged and untagged control strains and incubated with 1 mM phenanthroline, 2.5 uM Ub-aldehyde, and 100 μM MG132 at 4° C. for 45 min. […] Washed beads were resuspended in 2×SDS sample buffer and aliquots analyzed by immunoblotting with anti-Sic1."}, "Gst-Rad23 [1]": {"target": "T2, Gst-Rad23 (Saccharomyces cerevisiae, UniProt P32628)", "T2 construct": "made in house", "T2 sequence (P32628 1-398)": "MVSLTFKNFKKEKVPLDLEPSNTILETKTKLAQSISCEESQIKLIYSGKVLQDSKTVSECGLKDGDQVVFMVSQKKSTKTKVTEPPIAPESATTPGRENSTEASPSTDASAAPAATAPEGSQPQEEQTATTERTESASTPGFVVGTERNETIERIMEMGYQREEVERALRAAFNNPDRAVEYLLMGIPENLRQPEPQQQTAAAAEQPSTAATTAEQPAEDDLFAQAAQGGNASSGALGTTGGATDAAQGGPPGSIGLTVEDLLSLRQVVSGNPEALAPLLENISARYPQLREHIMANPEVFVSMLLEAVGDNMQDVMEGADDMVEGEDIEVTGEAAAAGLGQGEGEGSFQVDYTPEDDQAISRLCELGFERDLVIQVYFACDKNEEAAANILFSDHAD", "experiment": "Binding of UbSic1 to Gst-Rad23 on glutathione sepharose beads", "protocol": "(§1) FIG. 2. […] (A) Degradation of UbSic1. Purified 26S proteasomes were preincubated in the presence or absence of test compounds. UbSic1 was then added, and degradation assayed as described (6). Py mock refers to the pyridine solvent in which C23 was dissolved which was marginally inhibitory, unlike the 50% DMSO vehicle used for other test compounds. (B) Deubiquitination of UbSic1. […] UbSic1 was then added, and deubiquitination was assayed as described (6). (C) Titration curve with varying concentrations of C92 to determine half-maximal inhibition of deubiquitination. (D) C92 inhibits binding of UbSic1 to 26S proteasomes. Purified 26S proteasomes immobilized on anti-Flag beads were incubated with UbSic1 in the presence or absence of C92 as described (6). Following binding, beads were washed and analyzed by immunoblotting with anti-Sic1 polyclonal serum. (E) Binding of UbSic1 to the polyUb binding proteins Rpn10 and Rad23 is inhibited by C92. Recombinant Gst-Rpn10 and Gst-Rad23 (1 μg each) were immobilized on glutathione sepharose beads and then incubated with UbSic1 in the presence or absence of C92. Following binding, beads were washed and analyzed by immunoblotting. (F) C92 interacts with multiUb chains. […]\nRecombinant Gst-Rpn10 and Gst-Rad23 were immobilized on glutathione sepharose beads. […] Aliquots were analyzed by immunoblotting."}, "Gst-Rad23 [2]": {"target": "T2, Gst-Rad23", "experiment": "Native gel mobility shift of receptor protein", "format": "binding", "protocol": "as §1, with “chains. Equivalent amounts (5 μg) of purified Gst, Gst-fusion protein or multiUb chains were incubated with C92 or C1 before being loaded on a 5% native polyacryamide gel.” for “chains.”"}, "Gst-Rpn10": {"target": "T3, Gst-Rpn10 (Saccharomyces cerevisiae, UniProt P38886)", "T3 construct": "made in house", "T3 sequence (P38886 1-268)": "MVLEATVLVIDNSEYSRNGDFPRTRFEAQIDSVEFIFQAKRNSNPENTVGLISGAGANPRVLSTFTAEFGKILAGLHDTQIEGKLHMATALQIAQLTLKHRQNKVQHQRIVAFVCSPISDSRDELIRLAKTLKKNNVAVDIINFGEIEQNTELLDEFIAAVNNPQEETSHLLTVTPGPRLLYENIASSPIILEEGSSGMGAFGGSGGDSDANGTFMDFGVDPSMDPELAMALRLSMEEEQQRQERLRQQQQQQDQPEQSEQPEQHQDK", "experiment": "Native gel mobility shift of receptor protein", "format": "binding", "protocol": "as §1, with “chains. Equivalent amounts (5 μg) of purified Gst, Gst-fusion protein or multiUb chains were incubated with C92 or C1 before being loaded on a 5% native polyacryamide gel.” for “chains.”"}}, "data": [{"smiles": "O=C(Nc1ccc(/C=C/c2ccc(NC(=O)c3cc(S(=O)(=O)O)c4cccnc4c3O)cc2S(=O)(=O)O)c(S(=O)(=O)O)c1)c1cc(S(=O)(=O)O)c2cccnc2c1O", "note": "[Compound 92]", "values": [{"measurement": "inhibition of binding of UbSic1 to 26S proteasomes", "setting": "26S proteasomes", "result": "strongly inhibited binding"}, {"measurement": "inhibition of binding of UbSic1 to Rad23", "setting": "Gst-Rad23 [1]", "result": "abolished binding"}, {"measurement": "native gel mobility of Gst-Rad23", "setting": "Gst-Rad23 [2]", "result": "not Gst-Rpn10 or Gst-Rad23, was altered"}, {"measurement": "native gel mobility of Gst-Rpn10", "setting": "Gst-Rpn10", "result": "not Gst-Rpn10 or Gst-Rad23, was altered"}]}]}
